US4528289A, “Corynantheine derivates, processes for their preparation, and their use” (Dr. Willmar Schwabe GmbH & Co., priority 1982, dated 1985)
Counter-ions that a name gives are not always drawn.

Key:
[1] = hygroscopicity of crystals; assay type: physicochemical; conditions: crystals dried at 110° C. for 8 hours at oil pump vacuum
Protocol: For analysis, the product is again recrystallised from methanol by the addition of diethyl ether. […] 187° C. (decomp. from 158° C., subl. of the base); [α]D^20 =-26° (c=2 in methanol).

mice [2] = experiment: sedating action on mice after oral administration; assay type: in vivo; conditions: 5 to 20 mg/kg, dosage-dependent
[3] = system: systolic blood pressure of spontaneously hypertonic rats; experiment: regression analysis of the dosage-activity relationship (blood pressure lowering); assay type: in vivo, rat; conditions: compared with DHCN and ajmalicine
Excerpt: (§1) The blood pressure-lowering action of the compound THCN according to the present invention and of DHCN was investigated on spontaneously hypertonic rats after oral administration and compared with that of ajmalicine. The method thereby used for the measurement of the systolic blood pressure and of the heart rate on rats is described in Arzneimittel-Forschung, 18, 1285-1287/1968. Before commencement of the experiments, the animals were familiarised with the measurement procedure.
(§2) In a first series of experiments, the systolic blood pressure and the heart rate were investigated 2 hours after the oral administration of the test substances in the form of their hydrochlorides. The substances were suspended in 0.2% agar and administered in a volume of 10 ml./kg. It follows therefrom that all three substances lower the blood pressure in a dosage-dependent manner.
The calculation of the regression lines gives, in all three cases, a statistically significant correlation between dosage and degree of blood pressure lowering (cf. the following Table 4). For ajmalicine, in the case of a dosage of 56 mg./kg., the lowering reached a maximum of about 18%, which could not be exceeded with dosages of up to 100 mg./kg.

CHCl3 arrhythmia = experiment: inhibition of CHCl3 arrhythmia on mice, i.p.; assay type: in vivo
Excerpt: (§3) The antiarrhythmic effectiveness of DHCN and THCN was investigated on mice and rats.

mice [4] = experiment: acute toxicity, LD50 (Litchfield and Wilcoxon) on mice; assay type: in vivo; conditions: i.v., i.p. and oral LD50, mice
Excerpt: (§4) The toxicity of the compounds according to the present invention can be seen from the LD50 values given in the following Table 8 for intravenous, intraperitoneal and oral administration.

[5] = as above; assay type: in vivo; conditions: mouse, in vivo, mice
Excerpt: as §4

[6] = stability towards acids and other agents; assay type: physicochemical
[7] = system: heart rate of spontaneously hypertonic rats; experiment: heart rate of spontaneously hypertonic rats after oral administration; assay type: in vivo, rat; conditions: 2 h, tetrahydrocorynantheine
Excerpt: as §1, §2

mice [8] = experiment: body temperature-lowering action on mice after oral administration; assay type: in vivo; conditions: 5 to 20 mg/kg, dosage-dependent
[9] = system: heart rate of spontaneously hypertonic rats; experiment: chronological course of heart rate of spontaneously hypertonic rats; assay type: in vivo, rat; parameters: heart rate at time t: unit not given here
Excerpt: as §1
(§5) In a further series of experiments, the chronological course of the blood pressure lowering was investigated. For this purpose, spontaneously hypertonic rats were treated with 10 mg./kg. DHCN and with 5 or 10 mg./kg. THCN per os and in each case 6 or 12 animals of the treated group were measured at definite times after the treatment.

[10] = system: systolic blood pressure of spontaneously hypertonic rats; experiment: systolic blood pressure of spontaneously hypertonic rats after oral administration; assay type: in vivo, rat; conditions: 2 h, tetrahydrocorynantheine
Excerpt: as §1, §2

[11] = system: stereotypy brought about by apomorphine; experiment: potentiation of apomorphine stereotypy in mice; assay type: in vivo; conditions: oral, 10 to 20 mg/kg
[12] = system: aconitine-induced arrythmias; experiment: protection against aconitine-induced arrhythmias in urethane-narcotised rats, i.v.; assay type: in vivo; conditions: 2 to 5 mg/kg (THCN)
Excerpt: as §3

[13] = system: "head twitch" syndrome caused by 5-hydroxytryptophane; experiment: inhibition of "head twitch" syndrome caused by 5-hydroxytryptophane on mice; assay type: in vivo; conditions: concluded from head twitch test
[14] = system: systolic blood pressure of spontaneously hypertonic rats; experiment: chronological course of blood pressure decrease in spontaneously hypertonic rats; assay type: in vivo, rat
Excerpt: as §1, §5

## CC[C@H]1CN2CCc3c([nH]c4ccccc34)[C@@H]2C[C@@H]1C(COC)C(=O)OC (stereo partly drawn) [Example 9, tetrahydrocorynantheine hydrochloride]
[1]
  hygroscopicity (in words): slightly hygroscopic

## CC[C@H]1CN2CCc3c([nH]c4ccccc34)[C@@H]2C[C@@H]1C(COC)C(=O)OC (stereo partly drawn) [THCN, tetrahydrocorynantheine]
Mice [2]
  sedating action (in words): sedating
[3]
  dosage activity curve (in words): steeper
[3]; higher dosages
  strength of action (in words): stronger in higher dosages
CHCl3 arrhythmia
  antiarrhythmic effectiveness, chloroform arrythmias (in words): dosage-dependently inhibited the arrythmias caused by chloroform
CHCl3 arrhythmia; 10 mg/kg
  inhibition in % of CHCl3 arrhythmia: 10%
CHCl3 arrhythmia; 15 mg/kg
  inhibition in % of CHCl3 arrhythmia: 60%
CHCl3 arrhythmia; 25 mg/kg
  inhibition in % of CHCl3 arrhythmia: 90%
Mice [4]
  toxicities compared (in words): almost the same
[5]; ip
  LD50: 133 mg/kg
[5]; iv
  LD50: 14.1 mg/kg
[5]; po
  LD50: 283 mg/kg
[6]
  stability compared with dihydrocorynantheine (in words): substantially more stable than dihydrocorynantheine
  stability towards acids and other agents (in words): astonishingly stable towards acids and other agents
[7]; 5 mg/kg p.o.
  heart rate, subsequent value: 508 ± 7 beats/min.
  heart rate, Δ: 6 ± 12 beats/min.
  heart rate, Δ %: 1.2 ± 7.1%
[7]; 10 mg/kg p.o.
  heart rate, subsequent value: 519 ± 9 beats/min.
  heart rate, Δ: 21 ± 11 beats/min.
  heart rate, Δ %: 4.2 ± 3.3%
[7]; 18 mg/kg p.o.
  heart rate, subsequent value: 495 ± 6 beats/min.
  heart rate, Δ: 13 ± 12 beats/min.
  heart rate, Δ %: 3.3 ± 2.8%
[7]; 30 mg/kg p.o.
  heart rate, subsequent value: 493 ± 10 beats/min.
  heart rate, Δ: 22 ± 27 beats/min.
  heart rate, Δ %: 4.7 ± 6.6%
[7]; 40 mg/kg p.o.
  heart rate, subsequent value: 472 ± 14 beats/min.
  heart rate, Δ: -1 ± 29 beats/min.
  heart rate, Δ %: 1.0 ± 6.6%
Mice [8]
  body temperature-lowering action (in words): body temperature-lowering action
[9]; 5 mg/kg p.o., 10 min.
  heart rate at time t: 504
[9]; 5 mg/kg p.o., 20 min.
  heart rate at time t: 492
[9]; 5 mg/kg p.o., 40 min.
  heart rate at time t: 499
[9]; 5 mg/kg p.o., 80 min.
  heart rate at time t: 503
[9]; 5 mg/kg p.o., 2 h.
  heart rate at time t: 508
[9]; 5 mg/kg p.o., 4 h.
  heart rate at time t: 502
[9]; 5 mg/kg p.o., 6 h.
  heart rate at time t: 489
[9]; 10 mg/kg p.o., 10 min.
  heart rate at time t: 519
[9]; 10 mg/kg p.o., 20 min.
  heart rate at time t: 518
[9]; 10 mg/kg p.o., 40 min.
  heart rate at time t: 499
[9]; 10 mg/kg p.o., 80 min.
  heart rate at time t: 520
[9]; 10 mg/kg p.o., 2 h.
  heart rate at time t: 519
[9]; 10 mg/kg p.o., 4 h.
  heart rate at time t: 519
[9]; 10 mg/kg p.o., 6 h.
  heart rate at time t: 503
[9]; DHCN 10 mg/kg, THCN 10 mg/kg, on the border of statistical significance
  heart rate change (in words): an increase is to be observed
[9]; THCN 5 mg/kg
  heart rate change (in words): does not change
[10]; 5 mg/kg p.o.
  systolic blood pressure, subsequent value: 178 ± 4 mm Hg
  systolic blood pressure, Δ: -15 ± 3 mm Hg
  systolic blood pressure, Δ %: -7.7 ± 1.8%
[10]; 10 mg/kg p.o.
  systolic blood pressure, subsequent value: 168 ± 5 mm Hg
  systolic blood pressure, Δ: -28 ± 6 mm Hg
  systolic blood pressure, Δ %: -14.3 ± 4.7%
[10]; 18 mg/kg p.o.
  systolic blood pressure, subsequent value: 165 ± 13 mm Hg
  systolic blood pressure, Δ: -33 ± 11 mm Hg
  systolic blood pressure, Δ %: -16.5 ± 5.8%
[10]; 30 mg/kg p.o.
  systolic blood pressure, subsequent value: 146 ± 5 mm Hg
  systolic blood pressure, Δ: -43 ± 5 mm Hg
  systolic blood pressure, Δ %: -21.9 ± 3.9%
[10]; 40 mg/kg p.o.
  systolic blood pressure, subsequent value: 132 ± 9 mm Hg
  systolic blood pressure, Δ: -74 ± 10 mm Hg
  systolic blood pressure, Δ %: -35.7 ± 4.7%
[11]
  apomorphine stereotypy (in words): potentiated the stereotypy
  central dopaminergic-stimulating property (in words): central dopaminergic-stimulating property
[12]
  antiarrhythmic effectiveness, aconitine-induced arrythmias (in words): protects against aconitine-induced arrythmias
[13]
  central antiserotoninergic action (in words): central antiserotoninergic action
[14]; 5 mg/kg p.o., 10 min.
  percentage decrease of blood pressure: 11.1%
[14]; 5 mg/kg p.o., 20 min.
  percentage decrease of blood pressure: 13.8%
[14]; 5 mg/kg p.o., 40 min.
  percentage decrease of blood pressure: 12.8%
[14]; 5 mg/kg p.o., 80 min.
  percentage decrease of blood pressure: 13.8%
[14]; 5 mg/kg p.o., 2 h.
  percentage decrease of blood pressure: 8.1%
[14]; 5 mg/kg p.o., 4 h.
  percentage decrease of blood pressure: -0.2%
[14]; 5 mg/kg p.o., 6 h.
  percentage decrease of blood pressure: 4.0%
[14]; 10 mg/kg p.o., 10 min.
  percentage decrease of blood pressure: 13.5%
[14]; 10 mg/kg p.o., 20 min.
  percentage decrease of blood pressure: 29.3%
[14]; 10 mg/kg p.o., 40 min.
  percentage decrease of blood pressure: 27.8%
[14]; 10 mg/kg p.o., 80 min.
  percentage decrease of blood pressure: 23.0%
[14]; 10 mg/kg p.o., 2 h.
  percentage decrease of blood pressure: 14.4%
[14]; 10 mg/kg p.o., 4 h.
  percentage decrease of blood pressure: 14.0%
[14]; 10 mg/kg p.o., 6 h.
  percentage decrease of blood pressure: 15.9%
[14]; DHCN 10 mg/kg vs THCN 5 mg/kg p.o.
  blood pressure lowering action compared (in words): the same action
[14]; DHCN 10 mg/kg, THCN 5 mg/kg p.o.
  time of maximum blood pressure lowering: about 40 minutes
[14]; DHCN 10 mg/kg, THCN 5 mg/kg p.o., after about 40 minutes
  blood pressure after the maximum (in words): the blood pressure again increases to the initial value
[14]; THCN 10 mg/kg p.o.
  blood pressure lowering action (in words): a stronger action
  time of maximum blood pressure lowering: 20 min
[14]; THCN 10 mg/kg p.o., 20 minutes after administration
  maximum blood pressure lowering: 30%
[14]; THCN 10 mg/kg p.o., 6 hours
  blood pressure after 6 hours (in words): still distinctly below the initial value
[14]; oral administration
  blood pressure-lowering action compared with ajmalicine (in words): clearly stronger and longer-lasting blood pressure-lowering action
